One assay concerns Utrophin A promoter linked to a luciferase reporter gene. Briefly: Luciferase reporter assay (murine H2K cells), H2K/mdx/Utro A reporter cell line. To be noted: 48 h; test compound concentration 0.1 μM; mdx mouse H2K Utrophin A reporter cells; read-out: Activity (luciferase level relative to control). It is filed as cell-based. The gist of the method:
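Immortalized mdx mouse H2K myoblasts stably carrying ~5 kb utrophin A promoter–luciferase construct, kept at 33 °C, 10% CO2. Compound added 24 h after plating, typically at 10 μM final, for 48 h; luciferase measured by cell lysis and luminescence.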
For the compound `CS(=O)(=O)c1ccc(Cn2nc(C(=O)Nc3ccc4c(c3)OCO4)c3c2CCCC3)cc1` [Compound 149, N-(benzo[d][1,3]dioxol-5-yl)-1-(4-(methylsulfonyl)benzyl)-4,5,6,7-tetrahydro-1H-indazole-3-carboxamide], the activity at 0.1 µM was less than 200%.

Staying with this assay, now noted: 48 h; test compound concentration 0.3 μM; mdx mouse H2K Utrophin A reporter cells; read-out: Activity (luciferase level relative to control).
As for `O=C(Nc1ccc2c(c1)OCO2)c1nn(Cc2ccc3ccccc3c2)c2ccccc12` [Compound 141, N-(benzo[d][1,3]dioxol-5-yl)-1-(naphthalen-2-ylmethyl)-1H-indazole-3-carboxamide], the activity at 0.3 µM was less than 200%.

Staying with this assay, now noted: 48 h; test compound concentration 1 μM; mdx mouse H2K Utrophin A reporter cells; read-out: Activity (luciferase level relative to control).
Take `CS(=O)(=O)c1ccc(Cn2nc(C(=O)Nc3ccc4c(c3)OCO4)c3c2CCC3)cc1` [Compound 150, N-(benzo[d][1,3]dioxol-5-yl)-1-(4-(methylsulfonyl)benzyl)-1,4,5,6-tetrahydrocyclopenta[c]pyrazole-3-carboxamide]: the activity at 1 µM is less than 200%.

The assay is the same for the next values; noted with them: 48 h; test compound concentration 10 μM; mdx mouse H2K Utrophin A reporter cells; read-out: Activity (luciferase level relative to control).
For the compound `CS(=O)(=O)c1ccc(Cn2nc(C(=O)Nc3ccc4occc4c3)c3ccccc32)cc1` [Compound 120, N-(benzofuran-5-yl)-1-(4-(methylsulfonyl)benzyl)-1H-indazole-3-carboxamide], the activity at 10 µM fell in the range of 301 to 400%.
Take `CS(=O)(=O)c1ccc(Cn2nc(C(=O)Nc3ccc4c(c3)CCCC4)c3ccccc32)cc1` [Compound 121, 1-(4-(methylsulfonyl)benzyl)-N-(5,6,7,8-tetrahydronaphthalen-2-yl)-1H-indazole-3-carboxamide]: the activity at 10 µM was 201 to 300%.
On to `CS(=O)(=O)c1ccc(Cn2nc(C(=O)Nc3ccc(C4CCCCC4)cc3)c3ccccc32)cc1` [Compound 122, N-(4-cyclohexylphenyl)-1-(4-(methylsulfonyl)benzyl)-1H-indazole-3-carboxamide], for which the activity at 10 µM fell in the range of 201 to 300%.
Same read-out and setting: with `O=C(Nc1ccc2c(c1)OCO2)c1nn(Cc2ccc3c(c2)OCO3)c2ccccc12` [Compound 123, N-(benzo[d][1,3]dioxol-5-yl)-1-(benzo[d][1,3]dioxol-5-ylmethyl)-1H-indazole-3-carboxamide] the figure was 201 to 300%; with `CC(C)(C)c1ccc(C(=O)n2nc(C(=O)Nc3ccc4c(c3)OCO4)c3ccccc32)cc1` [Compound 124, N-(benzo[d][1,3]dioxol-5-yl)-1-(4-tert-butylbenzoyl)-1H-indazole-3-carboxamide], 301 to 400%.
The same measure, in the same setting: with `Cc1cnc(NC(=O)c2nn(Cc3ccc(S(C)(=O)=O)cc3)c3ccccc23)s1` [Compound 125, 1-(4-(methylsulfonyl)benzyl)-N-(5-methylthiazol-2-yl)-1H-indazole-3-carboxamide] the figure was less than 200%.
On the same count and under the same terms, the value for `Cc1csc(NC(=O)c2nn(Cc3ccc(S(C)(=O)=O)cc3)c3ccccc23)n1` [Compound 126, 1-(4-(methylsulfonyl)benzyl)-N-(4-methylthiazol-2-yl)-1H-indazole-3-carboxamide] was less than 200%.
Regarding `CS(=O)(=O)c1cccc(Cn2nc(C(=O)Nc3ccc4c(c3)OCO4)c3ccccc32)c1` [Compound 127, N-(benzo[d][1,3]dioxol-5-yl)-1-(3-(methylsulfonyl)benzyl)-1H-indazole-3-carboxamide], the activity at 10 µM was less than 200%.
On the same count and under the same terms, the value for `CN(C)S(=O)(=O)c1ccc(Cn2nc(C(=O)Nc3ccc4c(c3)OCO4)c3ccccc32)cc1` [Compound 128, N-(benzo[d][1,3]dioxol-5-yl)-1-(4-(N,N-dimethylsulfamoyl)benzyl)-1H-indazole-3-carboxamide] was 201 to 300%.
As for `O=C(Nc1ccc2c(c1)OCO2)c1nn(Cc2ccsc2)c2ccccc12` [Compound 129, N-(benzo[d][1,3]dioxol-5-yl)-1-(thiophen-3-ylmethyl)-1H-indazole-3-carboxamide], the activity at 10 µM is less than 200%.
The same measure, in the same setting: the value for `CS(=O)(=O)c1ccc(Cn2nc(C(=O)Nc3ccc4c(c3)CCC4)c3ccccc32)cc1` [Compound 130, N-(2,3-dihydro-1H-inden-5-yl)-1-(4-(methylsulfonyl)benzyl)-1H-indazole-3-carboxamide] was 201 to 300%.
The same measure, in the same setting: with `Cc1ccc(Cn2nc(C(=O)Nc3ccc4c(c3)OCO4)c3ccccc32)cc1` [Compound 131, N-(benzo[d][1,3]dioxol-5-yl)-1-(4-methylbenzyl)-1H-indazole-3-carboxamide] the figure was less than 200%.
On the same count and under the same terms, the value for `CCc1ccc(Cn2nc(C(=O)Nc3ccc4c(c3)OCO4)c3ccccc32)cc1` [Compound 132, N-(benzo[d][1,3]dioxol-5-yl)-1-(4-ethylbenzyl)-1H-indazole-3-carboxamide] was 201 to 300%; that for `Cc1ccc(NC(=O)c2nn(Cc3ccc(S(C)(=O)=O)cc3)c3ccccc23)cn1` [Compound 133, N-(6-methylpyridin-3-yl)-1-(4-(methylsulfonyl)benzyl)-1H-indazole-3-carboxamide] was less than 200%.
Regarding `Cc1ccc(NC(=O)c2nn(Cc3ccc(S(C)(=O)=O)cc3)c3ccccc23)nc1` [Compound 134, N-(5-methylpyridin-2-yl)-1-(4-(methylsulfonyl)benzyl)-1H-indazole-3-carboxamide], the activity at 10 µM is less than 200%.
Consider `CN(C)C(=O)c1cccc(Cn2nc3ccccc3c2C(=O)Nc2ccc3c(c2)OC(F)(F)O3)c1` [Compound 135, N-(2,2-difluorobenzo[d][1,3]dioxol-5-yl)-2-(3-(dimethylcarbamoyl)benzyl)-2H-indazole-3-carboxamide], for which the activity at 10 µM is 201 to 300%.
The same measure, in the same setting: with `CS(=O)(=O)c1ccccc1Cn1nc(C(=O)Nc2ccc3c(c2)OCO3)c2ccccc21` [Compound 136, N-(benzo[d][1,3]dioxol-5-yl)-1-(2-(methylsulfonyl)benzyl)-1H-indazole-3-carboxamide] the figure was less than 200%; with `O=C(Nc1ccc2c(c1)OCO2)c1nn(Cc2ccc(S(=O)(=O)N3CCOCC3)cc2)c2ccccc12` [Compound 137, N-(benzo[d][1,3]dioxol-5-yl)-1-(4-(morpholinosulfonyl)benzyl)-1H-indazole-3-carboxamide], 201 to 300%; with `Cc1ccc(NC(=O)c2nn(Cc3ccc(C(=O)N(C)C)cc3)c3ccccc23)cc1` [Compound 138, 1-(4-(dimethylcarbamoyl)benzyl)-N-p-tolyl-1H-indazole-3-carboxamide], 201 to 300%.
Still for that read-out and setting: the value for `CC(C)c1ccc(NC(=O)c2nn(Cc3ccc(C(=O)N(C)C)cc3)c3ccccc23)cc1` [Compound 139, 1-(4-(dimethylcarbamoyl)benzyl)-N-(4-isopropylphenyl)-1H-indazole-3-carboxamide] was less than 200%; that for `CS(=O)(=O)c1ccc(C(=O)n2nc(C(=O)Nc3ccc4c(c3)OCO4)c3ccccc32)cc1` [Compound 140, N-(benzo[d][1,3]dioxol-5-yl)-1-(4-(methylsulfonyl)benzoyl)-1H-indazole-3-carboxamide] was 301 to 400%.
Still for that read-out and setting: the value for `O=C(Nc1ccc2c(c1)OCO2)c1nn(Cc2ccc(C(=O)N3CCCC3)cc2)c2ccccc12` [Compound 142, N-(benzo[d][1,3]dioxol-5-yl)-1-(4-(pyrrolidine-1-carbonyl)benzyl)-1H-indazole-3-carboxamide] was 201 to 300%; that for `O=C(Nc1ccc2c(c1)OCCO2)c1nn(Cc2ccc(C(=O)N3CCOCC3)cc2)c2ccccc12` [Compound 143, N-(2,3-dihydrobenzo[b][1,4]dioxin-6-yl)-1-(4-(morpholine-4-carbonyl)benzyl)-1H-indazole-3-carboxamide] was 301 to 400%; that for `COc1ccc(NC(=O)c2nn(Cc3ccc(C(=O)N4CCOCC4)cc3)c3ccccc23)cc1` [Compound 144, N-(4-methoxyphenyl)-1-(4-(morpholine-4-carbonyl)benzyl)-1H-indazole-3-carboxamide] was 301 to 400%.
With `O=C(Nc1ccc2c(c1)OCO2)c1nn(Cc2ccon2)c2ccccc12` [Compound 145, N-(benzo[d][1,3]dioxol-5-yl)-1-(isoxazol-3-ylmethyl)-1H-indazole-3-carboxamide], the activity at 10 µM was less than 200%.
Same read-out and setting: the value for `CS(=O)(=O)c1ccc(Cn2cc(C(=O)Nc3ccc4c(c3)OCO4)c3ccccc32)cc1` [Compound 146, N-(benzo[d][1,3]dioxol-5-yl)-1-(4-(methylsulfonyl)benzyl)-1H-indole-3-carboxamide] was less than 200%.
Still for that read-out and setting: the value for `CCn1ccc(C(=O)Nc2ccc(Cl)cc2Cl)n1` [Compound 147, N-(2,4-dichlorophenyl)-1-ethyl-1H-pyrazole-3-carboxamide] was less than 200%.
On the same count and under the same terms, with `CCN(CC)C(=O)c1ccc(Cn2nc(C(=O)Nc3ccc4c(c3)OCO4)c3ccccc32)cc1` [Compound 151, N-(benzo[d][1,3]dioxol-5-yl)-1-(4-(diethylcarbamoyl)benzyl)-1H-indazole-3-carboxamide] the figure was less than 200%; with `CC(C)S(=O)(=O)c1ccc(Cn2nc(C(=O)Nc3ccc4c(c3)OCO4)c3ccccc32)cc1` [Compound 152, N-(benzo[d][1,3]dioxol-5-yl)-1-(4-(isopropylsulfonyl)benzyl)-1H-indazole-3-carboxamide], less than 200%.
`CCc1ccc(Cn2nc(C(=O)Nc3ccc4c(c3)OCO4)c3ccccc32)nc1` [Compound 153, N-(benzo[d][1,3]dioxol-5-yl)-1-((5-ethylpyridin-2-yl)methyl)-1H-indazole-3-carboxamide]: the activity at 10 µM was less than 200%.
Same read-out and setting: the value for `CC(C)c1nc(Cn2nc(C(=O)Nc3ccc4c(c3)OCO4)c3ccccc32)no1` [Compound 154, N-(benzo[d][1,3]dioxol-5-yl)-1-((5-isopropyl-1,2,4-oxadiazol-3-yl)methyl)-1H-indazole-3-carboxamide] was less than 200%.

Still in this assay, the particulars now being: 48 h; test compound concentration 30 μM; mdx mouse H2K Utrophin A reporter cells; read-out: Activity (luciferase level relative to control).
Consider `CS(=O)(=O)c1ccc(Cn2ccc(C(=O)Nc3ccc4c(c3)OCO4)n2)cc1` [Compound 148, N-(benzo[d][1,3]dioxol-5-yl)-1-(4-(methylsulfonyl)benzyl)-1H-pyrazole-3-carboxamide], for which the activity at 30 µM is less than 200%.

The values above are taken from patent publication US20100305120A1, “COMPOUNDS FOR TREATING MUSCULAR DYSTROPHY” (BIOMARIN IGA LIMITED, priority 2008, published 2010).
